Assay results reported in patent publication US20230348459A1, “PYRROLIDINE COMPOUND AND USE THEREOF” (SIMCERE PHARMACEUTICAL CO., LTD., priority 2020, published 2023).
Read-outs that look alike come from different tables or passages of the source.

How the values were obtained:
[1] = Blood-brain barrier (BBB) permeability in rats; format: in vivo, SD rats; settings: for Kp at 2 h / concentration at 2 h: rat, female SD rats, 100 mg/kg QD, 2 h after administration; for Kp at 2 h: brain/plasma, read-out: B/P ratio
Procedure: Six female SD rats (200-300 g, 6-8 weeks) were randomized into 2 groups, 3 rats/group. Each rat was given the compounds of the present invention, and the vehicle was 0.5% methylcellulose aqueous solution. Animals were fed with water as usual and fasted overnight before the experiment, and feeding was resumed four hours after administration. Plasma and brain tissue were collected from rats of each group 2 h after administration. The whole blood sample collected was placed in a K2EDTA anticoagulation tube and centrifuged for 5 min (12,000 rpm, 4° C.) and then the plasma was taken for later detection. After tissue collection, the tissue was dried with filter paper, and the samples were stored in a -80° C. freezer for later detection.
10 µL of the rat plasma sample was taken and 150 µL of acetonitrile solvent (wherein an internal standard compound was contained) was added to precipitate proteins. After the mixture was vortexed for 5 min, centrifugation (14,000 rpm) was performed for 5 min. The supernatant was diluted 2-fold with water containing 0.1% (v/v) FA and injected into the LC-MS/MS system (AB Sciex Triple Quad 6500+) for the quantitative detection. For the 10x diluted samples, 2 µL of the sample was taken and 18 µL of blank plasma was added. After the mixture was vortexed for 0.5 min, 300 µL of acetonitrile solvent (wherein an internal standard compound was contained) was added to precipitate proteins. The other processing steps were identical to those for the samples not diluted. A calibration standard curve was prepared in SD rat plasma along with plasma quality control samples to determine the plasma concentration.
Brain tissue samples from rat were first homogenized with 4 times the mass volume of PBS homogenate. 20 µL of brain tissue homogenate sample was taken, and 20 µL of blank mouse plasma was added. The mixture was diluted and mixed uniformly, and 600 µL of acetonitrile solvent (wherein an internal standard compound was contained) was added to precipitate proteins. After the mixture was vortexed for 5 min, centrifugation (14,000 rpm) was performed for 5 min. The supernatant was diluted 2-fold with water containing 0.1% (v/v) FA and injected into the LC-MS/MS system (AB Sciex Triple Quad 6500+) for the quantitative detection.

MCF-7 subcutaneous tumor = assay: Growth inhibition in MCF-7 subcutaneous tumor model in mice; format: in vivo, NPG mice; settings: for TGI: 3 weeks; for Average tumor volume Day 0: Day 0 (grouping); for Effect on body weight of mice: at the doses tried
Procedure: Cell inoculation: 0.1 ml/(containing 1 × 10^7) MCF-7 cell suspension (volume ratio of D-PBS : Matrigel = 1 : 1) was inoculated subcutaneously on the right back of each mouse, and the mice were inoculated subcutaneously with 17β-estradiol tablets four days before the cell inoculation.
Administration: The compound # Example 1 was administered at a dose of 1, 3, or 10 mg/kg, orally (PO), once daily (QD) for 3 weeks. The compound # Example 2 was administered at a dose of 10 mg/kg, orally (PO), once daily (QD) for 3 weeks. 8 mice were in the vehicle group and 6 mice were in the administration group.
The diameter of the tumor was measured with vernier calipers twice weekly. The calculation formula of tumor volume was V = 0.5a × b^2, wherein a and b represented the long and short diameters of the tumor, respectively. The body weights of the mice were weighed twice weekly.
The tumor-inhibiting efficacy of the compound was evaluated using tumor growth inhibition (TGI) (%).

MCF-7 intracranial tumor = assay: Growth inhibition in MCF-7 intracranial tumor model in mice; settings: 30 mg/kg PO once daily
Procedure: Animal information: NPG mice (female, 6-8 weeks, body weight: about 17-29 g) were purchased from Beijing Vitalstar Biotechnology Co., Ltd. The mice were fed in SPF environment and each cage position was individually ventilated.
Cell culture: The human breast cancer MCF-7 cell line was cultured in vitro in EMEM (cell culture medium) supplemented with 10% fetal bovine serum, 1% Pen Strep and 10 µg/ml recombinant human insulin in a 37° C., 5% CO2 incubator. Conventional digestion treatment with 0.25% trypsin-EDTA digestion solution was carried out twice weekly for passage. When the cell saturation was 80%-90%, and the number reached the requirement, the cells were collected and counted.
Cell inoculation: 15 µl/(containing 2 × 10^6) MCF-7 cell suspension was inoculated into the brain of mice using a stereotaxic apparatus, a micro-injection pump and a miniature handheld cranial drill, and the mice were subcutaneously inoculated with 17β-estradiol tablets three days before the cell inoculation. On day 8 after cell inoculation, the mice were randomized into groups for administration according to the body weight thereof, and the day of grouping was Day 0.
11 mice were in the vehicle group and 8 mice were in the administration group. Mice in all groups were continuously administered until the mice died, which were euthanized due to poor state or the end of the experiment.
The body weight of the mice was measured twice weekly, and the survival status of the mice was observed.
At the end of the experiment on Day 48, all mice were euthanized.

[2] = brain, read-out: Drug concentration in brain
[3] = plasma, read-out: Drug concentration in plasma

| SMILES | Kp at 2 h [1] | concentration at 2 h [1, 2] [ng/g] | concentration at 2 h [1, 3] [ng/mL] | TGI (MCF-7 subcutaneous tumor; 10 mg/kg PO QD) [%] | Average tumor volume Day 0 (MCF-7 subcutaneous tumor; 10 mg/kg PO QD) [mm^3] | Average tumor volume Day 21 (MCF-7 subcutaneous tumor; 10 mg/kg PO QD) [mm^3] | Effect on body weight of mice (MCF-7 subcutaneous tumor) | Blood-brain barrier permeability (in words) ([1]; rats) | TGI (MCF-7 subcutaneous tumor; 1 mg/kg PO QD) [%] | Average tumor volume Day 0 (MCF-7 subcutaneous tumor; 1 mg/kg PO QD) [mm^3] | Average tumor volume Day 21 (MCF-7 subcutaneous tumor; 1 mg/kg PO QD) [mm^3] | TGI (MCF-7 subcutaneous tumor; 3 mg/kg PO QD) [%] | Average tumor volume Day 0 (MCF-7 subcutaneous tumor; 3 mg/kg PO QD) [mm^3] | Average tumor volume Day 21 (MCF-7 subcutaneous tumor; 3 mg/kg PO QD) [mm^3] | Tumor shrinkage (in words) (MCF-7 subcutaneous tumor; doses of 3 mg/kg and 10 mg/kg) | Effect on tumor growth (in words) (MCF-7 subcutaneous tumor; orally once daily at 1 mg/kg, 3 mg/kg or 10 mg/kg, P < 0.01) | Deaths in group (MCF-7 intracranial tumor; until Day 48) | Survival period vs solvent control or Fulvestrant (MCF-7 intracranial tumor; P < 0.01) |
| --- | --- | --- | --- | --- | --- | --- | --- | --- | --- | --- | --- | --- | --- | --- | --- | --- | --- | --- |
| C[C@@H]1Cc2c([nH]c3ccccc23)C(c2c(F)cc(N[C@H]3CCN(CCCF)C3)cc2F)N1CC(F)(F)CO (stereo in doubt) [Example 7, 3-((1S,3R)-1-(2,6-difluoro-4-(((S)-1-(3-fluoropropyl)pyrrolidin-3-yl)amino)phenyl)-3-methyl-3,4-dihydro-1H-pyridino [3,4-b]indole-2(9H)-yl)-2,2-difluoropropane-1-ol] | 0.28 | 703 | 2540 | 140.09 | 170 | 80 | do not significantly affect the body weight | – | – | – | – | – | – | – | – | – | – | – |
| C[C@@H]1Cc2c([nH]c3ccccc23)[C@@H](c2ccc(N[C@H]3CCN(CCCF)C3)cn2)N1CC(F)(F)F [Example 3, N-((S)-1-(3-fluoropropyl)pyrrolidin-3-yl)-6-((1S,3R)-3-methyl-2-(2,2,2-trifluoroethyl)-2,3,4,9-tetrahydro-1H-pyridino[3,4-b]indol-1-yl)pyridine-3-amine] | 4.2 | 10600 | 2620 | 138.17 | 177 | 91 | do not significantly affect the body weight | excellent blood-brain barrier permeability | 89.08 | 183 | 207 | 114.71 | 169 | 136 | shows an effect of shrinking tumor | significant inhibitory effects | No death case occurred | significantly prolonged |
